These results are taken from patent US6919441B2, “Polyamide-oligonucleotide derivatives, their preparation and use” (Aventis Pharma Deutschland GmbH, priority 1995, dated 2005).

In the oligonucleotide strings, read from the 5' end, every base follows the letter of its sugar. An asterisk marks phosphorothioate; unmarked linkages are phosphodiester. Other units and linkages are bracketed, terminal groups are in braces. A string of capitals states the bases alone. d = 2'-deoxy (DNA)

For one data set, the system named is complementary DNA. The data set is described as follows: Melting temperature (TM) with complementary DNA. It is filed as binding. Conditions: 10 mM HEPES, 140 mM NaCl, pH 7.5. As for the experimental part:
(§1) The melting temperatures are determined using an HP 8452A diode array spectrophotometer, an HP 89090A Peltier element and the HP temperature control software Rev.B5.1 (from Hewlett Packard). Measurements are carried out in 0.5° C./min steps in 10 mM HEPES and 140 mM NaCl (pH 7.5) as buffer. The oligomer concentration is 0.5 to 1 OD260 per ml.

Data set [1] deals with complementary RNA (T = U). Put plainly: Melting temperature (TM) with complementary RNA. It is filed as binding. Particulars: ap; 3′-TGT AGT ACC AGC-5′ (T = U); 10 mM HEPES, 140 mM NaCl, pH 7.5. The protocol:
as §1

Data set [2] deals with Ha-ras protein expression. Put plainly: Anti-Ha-ras activity, Western blot in RS485 cells. It is filed as cell-based. The protocol: RS485 cells (40-60% confluency) were either treated with the PNS_DNA chimera alone or transfected with PNA-DNA chimera using Lipofectin™ Reagent and the protocol from Life Technologies. Briefly, varying concentrations of oligomers were diluted in 100 μl of serum-free medium. In a separate tube Lipofectin was added to serum-free medium at a concentration of 7 μl/100 μl. After 30 minutes at room temperature, 100 μl of Lipofectin solution was mixed with 100 μl of ODN solution, incubated for an additional 15 minutes at room temperature, and mixed with 800 μl of serum-free medium. Cells were washed two times with serum-free medium, and the total solution (1 ml) containing the ODN-Lipofectin complex was overlayed onto the cells. After 6 hours, 1 ml of fresh medium containing 8 mM L-glutamine and 20% calf serum was added, and the cells were incubated for an additional 38 hours. Treated cells were washed with PBS, harvested with trypsin, and cellular proteins were extracted. The ras Protein was then determined by Western Blot Analysis. Total cellular protein was prepared by lysing cells in RIPA buffer with freshly added inhibitors (PMSF, aprotinin, sodium orthovanadate) and homogenizing through 21-gauge needles according to the protocol provided by Santa Cruz Biotechnology, Inc. The extracts were cleaned by centrifugation at 15,000 xg for 20 min at 4° C. and the protein concentration of the supernatant was determined. 40 μg of protein was size fractionated in 5-12.5% PAGE and electroblotted onto a nitrocellulose membrane. The membrane was incubated with primary antibody against Ha-Ras (C-20) (Santa Cruz Biotechnology, Inc.) and then with Horseradish Peroxidase-conjugated goat anti-rabbit immunoglobulin G. The ECL chemo-luminescent Western system (Amersham, Arlington Heights, Ill.) was used to detect secondary probes.

The test system of data set [3] is VEGF (vascular endothelial growth factor). Put plainly: Inhibition of VEGF expression (ELISA of culture supernatants). It counts as cell-based, human. As for the experimental part: Cell Culture: Normal human epidermal keratinocytes (NHEK cells) were grown in KGM growth medium (Clonetics).
Both human estrogen responsive breast tumor (MCF-7) cells and human estrogen-independent breast tumor (MDA-MB-231) cells were grown in IMEM (Biofluids) supplemented with 10% FBS (Gibco-BRL) and 1:100 antibiotic-antimycotic (Gibco-BRL).
Cellular assays: NHEK cells were seeded at a density of ˜50,000 cells per well in 48-well plates in 0.5 ml of KGM growth medium (Clonetics) and incubated in humidified incubators at 37° C. The following day, the growth medium was replaced with fresh medium containing the PNA-DNA chimera alone or as mixture with Cellfectin, a cationic lipid uptake enhancer for nucleic acids (Life Technologies). Incubation of cells with the oligomer formulation was followed by a wash after 4 hours and cells were returned to fresh unsupplemented medium. Sixteen and/or 40 hr post-stimulation the culture supernatants were removed and used for ELISA, or saved at −80° C. for future analysis. To assay MCF-7 or MDA-MB-231 cells. MCF-7/MDA-MB-231 cells were seeded at a density of ˜100,000 cells per well plates in 0.5 ml of IMEM and incubated under standard conditions. […] VEGF protein levels in the supernatant were determined using a commercially available ELISA kit (R&D Systems).

Data set [4] relates to DNA double strand (homopurine motif). Put plainly: Binding as triplex-forming oligonucleotide to double-stranded DNA.
Data set [5] can be described thus: Stability of the oligomer in medium containing cells. It counts as in vitro ADME. As for the experimental part:
Vero cells are incubated in DMEM, 5% FCS, in 96-well microtiter plates at 37° C. for 24 hours. After removal of the medium, the cells are washed twice with serum-free DMEM. The radioactively labeled oligomer (10^6 cpm) is diluted with unlabeled oligomer to a concentration of 10 μM in serum, and the cells are incubated at 37° C. therewith. 150 μl portions are removed after 1, 7 and 24 hours (called “supernatant 1”). The cells in the wells of the microtiter plates are washed 7 times with 300 μl of fresh medium, and the combined washing media (called “supernatant 2”) are measured in a scintillation counter. Then 100 μl of trypsin solution are added, 30 seconds are allowed to elapse, and the supernatant is aspirated off. The cells are detached from the plate by incubating at 37° C. for 3 min. The detached cells are transferred into 1.5 ml Eppendorf tubes and centrifuged at 2,000 rpm for 6 minutes (“supernatant 3”). Supernatants 1 (5 μl), 2 and […] (0.5 ml) are each measured separately in a scintillation counter. From this is calculated the uptake of oligomer in pmol per 100,000 cells, with supernatant 3 representing the cell-bound oligomer fraction and the total of supernatants 1 and 2 representing the non-cell-bound oligomer fraction.
Supernatant 1 (10 μl) is mixed with 5 μl of 80% formamide (with Xylenecyanol and bromphenolblue), heated to 95° C. […]

The target in data set [6] is DNA polymerase (Klenow fragment) (Escherichia coli, UniProt P00582). Put plainly: DNA polymerase reaction (primer function). It counts as biochemical. Conditions: 22° C. and 37° C., 10% polyacrylamide gel. The text has this: The following 81-mer oligodeoxynucleotide is used as template for the DNA polymerase reaction: • 5′-GCCCCAGGGAGAAGGCAACTGGACCGAAGGCGCTTGTGGAGAAGGAGTTCATAGCTGGGCTCCCTATAGTGAGTCGTATTA-3′(SEQ ID NO:50)
The sequence of the PNA/DNA primer is: • H-taa tac gac tca cta (5NH-T)-OH 3′(SEQ ID NO:62).
A corresponding oligodeoxynucleotide of the sequence 5′-TAA TAC GAC TCA CTA TAG-3′ (SEQ ID NO:51) is used as control primer.
The primer (0.15 nmol) and the template (0.15 nmol) in 5 μl of 10×PCR buffer ([…], 100 mM tris-HCl, pH 9, 1% Triton X-100, 15 MM MgCl2) are diluted with 35 μl of water and hybridized by heating to 95° C. and cooling. Then 10 μl of 2 mM dNTP mixture (nucleoside 5′-triphosphates) and 3 μl of DNA polymerase (Klenow fragment) are added, and the mixture is incubated at 22° C. and 37° C. for 0.5 hour each. The reaction solution is then analyzed on a 10% polyacrylamide gel (with 1% bis). pBR322/HaeIII digestion is loaded as marker. […] In both cases the double strand migrates […] than the template single strand in the gel electrophoresis.

A further data set deals with c-Fos protein expression. The data set is described as follows: Inhibition of c-Fos protein expression in the rat (spinal cord superfusion). It counts as in vivo, Sprague-Dawley rat. Conditions: 75 μM, 6 hours, heat stimulation. The text has this:
The determination takes place as described (Sandkühler et al. (1991) in: Proceedings of the VIth World Congress on Pain, Charlton and Woolf, Editors; Elsevier, Amsterdam; pages 313-318) by superfusion of the spinal cord. After laminectomy of a barbiturate-anesthetized Sprague-Dawley rat, a two-chamber container is formed from silicone to receive the antisense oligomer. One chamber is filled with the antisense PNA/DNA derivative, while the other chamber is filled with the control oligomer (concentration of each 75 μM). The superfusate is exchanged in each case after one hour. After superfusion for 6 hours, c-fos expression is stimulated by heat treatment (52° C.) of the rear legs.

Another data set relates to COS cells. Put plainly: Cellular uptake by fluorescence labeling (fluorescence microscopy). It is filed as cell-based. Conditions: 0.1 mM oligomer. The protocol: COS cells are allowed to grow to confluence in Dulbecco's MEM supplemented with 10% FCS in 5 cm Petri dishes. The cells are washed twice with serum-free DMEM. A sterile needle is used to scratch an area of about 1 cm^2 in the middle of the Petri dish. The PNA/DNA oligomer solution (0.1 mM) to be investigated is applied to this area. Incubation is carried out at 37° C. under a CO2 atmosphere. The cells are investigated by fluorescence microscopy after 2, 4 and 16 hours. For this, the cells are washed four times with serum-free DMEM, covered with a glass slide and assessed under a fluorescence microscope or by phase contrast. A fluorescence-labeled PNA (without DNA part) F-(but)-tttt ttt-hex was investigated as comparison for the PNA/DNA hybrid molecules. After the cells had been incubated with this PNA for two hours, >90% of the cells show signs of pronounced morphological changes and cell death. […] The plasma membrane, the cytosol and the nucleus show no uptake of PNA. […] The situation is different with the DNA/PNA oligomers according to the invention. After incubation of the cells with the DNA/PNA oligomers for only two hours the cells show punctiform intracellular distribution of the PNA/DNA oligomers. The cells suffer no cell death even after prolonged incubation.

The target in data set [7] is RNase L (cellular endoribonuclease L) (Homo sapiens, UniProt Q05823). Conditions: HeLa cell extract, 37° C.
Method: An HeLa cell extract was prepared in order to stimulate the activity of cellular endoribonuclease L by the 2′,5′-tetraadenylate-PNA/DNA conjugates.
For investigation of this extract for endonuclease L, initially 0.3 OD of the RNA target sequence is heated with the particular PNA/DNA oligomers at 80° C. for 5 minutes and subsequently cooled to 37° C. for the hybridization. The duplex is mixed with 20 μl of the extract, 1.2 μl of glycerol and RNase L buffer and incubated at 37° C. The total volume is then 70 μl. For the kinetic investigations, samples are removed by pipette at the times of 0, 20 and 60 minutes and heated at 95° C. for 5 minutes to denature the enzymes. The samples are lyophilized in a Speedvac and analyzed by gel electrophoresis.
Where [8] appears, read: antiparallel, 3′-TAG CAG CAT AAT CAG-5′.
Where [9] appears, read: parallel, 5′-TAG CAG CAT AAT CAG-3′.

DNA polymerase (Klenow fragment), sequence (P00582 324-928): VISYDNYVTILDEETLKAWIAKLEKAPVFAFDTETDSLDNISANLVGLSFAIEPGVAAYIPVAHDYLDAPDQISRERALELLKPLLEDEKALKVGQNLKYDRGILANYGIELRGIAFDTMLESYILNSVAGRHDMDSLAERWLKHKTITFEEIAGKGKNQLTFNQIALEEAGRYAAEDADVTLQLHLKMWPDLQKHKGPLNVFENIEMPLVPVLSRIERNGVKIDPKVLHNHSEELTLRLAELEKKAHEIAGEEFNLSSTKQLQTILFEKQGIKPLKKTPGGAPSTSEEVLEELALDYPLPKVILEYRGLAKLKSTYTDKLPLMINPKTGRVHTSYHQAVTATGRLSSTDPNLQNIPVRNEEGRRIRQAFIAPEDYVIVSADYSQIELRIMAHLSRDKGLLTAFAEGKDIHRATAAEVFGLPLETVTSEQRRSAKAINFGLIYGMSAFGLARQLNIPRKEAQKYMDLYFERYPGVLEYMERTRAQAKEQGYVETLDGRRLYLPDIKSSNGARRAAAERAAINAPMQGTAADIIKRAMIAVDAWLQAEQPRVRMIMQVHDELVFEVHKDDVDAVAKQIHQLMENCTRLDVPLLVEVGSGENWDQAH
RNase L (cellular endoribonuclease L), sequence (Q05823 whole entry): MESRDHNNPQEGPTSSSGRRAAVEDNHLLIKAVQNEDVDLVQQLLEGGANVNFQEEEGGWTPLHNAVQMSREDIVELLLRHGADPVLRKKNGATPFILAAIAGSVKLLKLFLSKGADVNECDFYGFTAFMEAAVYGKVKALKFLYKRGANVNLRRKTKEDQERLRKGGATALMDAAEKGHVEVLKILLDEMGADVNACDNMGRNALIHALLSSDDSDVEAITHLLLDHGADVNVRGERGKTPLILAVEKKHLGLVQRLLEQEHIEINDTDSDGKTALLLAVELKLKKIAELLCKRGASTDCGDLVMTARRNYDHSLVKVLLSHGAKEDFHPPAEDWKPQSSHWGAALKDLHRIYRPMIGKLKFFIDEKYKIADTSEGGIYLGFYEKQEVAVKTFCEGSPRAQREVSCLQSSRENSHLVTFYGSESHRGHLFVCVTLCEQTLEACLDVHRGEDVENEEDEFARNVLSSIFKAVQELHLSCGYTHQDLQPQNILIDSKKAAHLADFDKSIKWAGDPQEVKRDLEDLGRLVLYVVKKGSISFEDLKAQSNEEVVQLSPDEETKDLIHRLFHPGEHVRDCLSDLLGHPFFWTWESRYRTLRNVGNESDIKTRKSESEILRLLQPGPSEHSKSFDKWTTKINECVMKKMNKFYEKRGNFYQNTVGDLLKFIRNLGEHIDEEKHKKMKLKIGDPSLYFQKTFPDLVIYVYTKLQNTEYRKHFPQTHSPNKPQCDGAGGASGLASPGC

On to “5′-ACA TCA TGG TCG-3′ [5′-ACA TCA TGG TCG-3′ DNA] (ACATCATGGTCG; unmodified DNA) [natural DNA oligonucleotide, reference compound]”, for which the “TM with DNA” value in the data set on complementary DNA (ap, 3′-TGT AGT ACC AGC-5′) is listed as 50.7° ° C. In addition, the “TM with RNA (T = U)” value in data set [1] came out at 48.6° ° C.
Turning to “5′-ACA TCA TGG TCG-3′ [5′-ACA TCA TGG TCG-3′ S-DNA] (dA*dC*dA*dT*dC*dA*dT*dG*dG*dT*dC*dG) [reference compound]”, the “TM with DNA” value in the data set on complementary DNA (ap, 3′-TGT AGT ACC AGC-5′) is reported as 46.7° ° C. Besides, the “TM with RNA (T = U)” value in [1] worked out at 43.8° ° C.
For “5′-ASTSGS-(Oeg(a))-cgg aata-hex [Example 53]”, in [2], the “inhibition of ha-ras expression (control oligonucleotides)” value is reported as “did not inhibit”.
As for “5′-ATC GTC GTA TT-(Oeg(t))-agtc-hex [Example 18]”, the results for the “TM with DNA” value in the data set with complementary DNA (setting [8]) and with complementary DNA (setting [9]) were “TM = 51.5 °C” and “TM < 20 °C”, respectively.
Turning to “5′-ATC GTC GTA TT-(but)-agtc-hex [Example 17]”, the “TM with DNA” value was “TM = 51.0 °C” in the data set on complementary DNA (setting [8]) and “TM < 20 °C” in the data set on complementary DNA (setting [9]).
“5′-ATC GTC GTA TTA GTC-3′ (ATCGTCGTATTAGTC; DNA, backbone not given here) [natural DNA oligonucleotide (DNA · DNA duplex), reference compound]”: the “TM with DNA” value in the data set on complementary DNA (setting [8]) was “TM = 50.5 °C”.
For the substance “5′-ATG-(Oeg(a))-cgg aata-hex [Example 52]”, the “inhibition of ha-ras expression (control oligonucleotides)” value in data set [2] was “did not inhibit”.
For “5′-CSUSGAUSAG-(Oeg(a))-catccatg-hex [Example 54]”, in data set [3] (1 μM, presence of Cellfectin (10 μg/ml)), the “highest inhibition of VEGF expression” value stood at 43%. For the same substance, the “inhibition of VEGF expression” value in data set [3] (0.1 to 0.4 μM, absence of Cellfectin) is listed as 10-18%.
Take “5′-GG GGG GGG (Oeg(t)) ttt ttt ttt-hex [Example 39]”: in [4], the “binding as triplex-forming oligonucleotide to DNA double strand” value is reported as “high affinity”.
Regarding “5′-GGG GGG GGG (but) ttt ttt-hex [Example 28]”, the “binding as triplex-forming oligonucleotide to DNA double strand” value in data set [4] is “high affinity”.
Regarding “5′-TSASTS-(Oeg(t))-ccgtcat-hex [Example 51]”, in data set [2] (1 μM, in the presence of lipofectin), the “inhibition of ha-ras protein expression” value is “almost complete inhibition”.
The substance “5′-TTT TTT TTT (but) ttt ttt-hex [Example 26]” yielded a stable oligomer in data set [5] (after an incubation time of 24 hours in medium containing cells) of 69%.
With “(5′)-(Acetyl)-taa tac gac tca cta (eae(t) A-3′ [Example 65]”, the “DNA polymerase reaction product with primer on 81-mer template (gel)” value in data set [6] is on record as “dNTP are polymerized”.
In [5] (medium containing cells), “A CAT CA (Oeg(t)) ggt cg-hex [Example 31]” came in with a half-life of 32 h. For the same substance, the “inhibition of c-fos expression compared with corresponding DNA oligonucleotide and PNA oligomer” value with c-Fos protein expression is recorded as “greater inhibition”.
Consider F-(but)-tttt ttt-hex, for which the “cell death on further/prolonged incubation” value in the data set on COS cells (a further two hours or prolonged incubation) was “all the cells have died”. Further, the “cells showing pronounced morphological changes and cell death” value in the data set with COS cells (incubated two hours) is more than 90%. In addition, the “intracellular uptake (fluorescence microscopy)” value in the data set on COS cells (two hours) is “no uptake”.
With “PS-rA(2′5′)rA(2′5′)rA(2′5′)rA-spacer-(Oeg(t)tc ctc ctg cgg-hex [Example 37]”, in data set [7], the “stimulation of RNase L” value was “stimulates RNase L”.
As to “taa tac gac tca cta (5′HN-T) (TAATACGACTCACTA; listed as DNA, chemistry not fully specified) [Example 36, 15 PNA units and one nucleoside unit, primer for DNA polymerase]”, the “DNA polymerase reaction product with primer on 81-mer template (gel)” value in [6] is on record as “migrates somewhat more quickly”.
